Structures are written as SMILES. Like-named read-outs stand apart in the source and are kept apart here. Bounds are passed on as bounds.

The test system of experiment [1] is T-47D. Description: Caspase cascade activation (Ac-DEVD-R110 fluorogenic substrate) in T-47D cells. Type of experiment: cell-based, Human. As to conditions: 24 h incubation; for Caspase Activity Ratio: ratio of net RFU to that of control samples; for EC50: 0.16 to 10 μM final, read-out: Caspase potency EC50. The protocol: (§1) Human breast cancer cell lines T-47D and ZR-75-1 were grown according to media component mixtures designated by American Type Culture Collection +10% FCS (Invitrogen Corporation), in a 5% CO2-95% humidity incubator at 37° C. T-47D and ZR-75-1 cells were maintained at a cell density between 30 and 80% confluency and for HL-60 at a cell density of 0.1 to 0.6×10^6 cells/mL. Cells were harvested at 600×g and resuspended at 0.65×10^6 cells/mL into appropriate media +10% FCS. An aliquot of 45 μL of cells was added to a well of a 96-well microtiter plate containing 5 μL of a 10% DMSO in RPMI-1640 media solution containing 1.6 to 100 μM of N,N′-bis-(3-trifluoromethyl-phenyl)-2-(4-isopropyl-benzylidene)-malonamide or other test compound (0.16 to 10 μM final). An aliquot of 45 μL of cells was added to a well of a 96-well microtiter plate containing 5 μL of a 10% DMSO in RPMI-1640 media solution without test compound as the control sample. The samples were mixed by agitation and then incubated at 37° C. for 24 h in a 5% CO2-95% humidity incubator. After incubation, the samples were removed from the incubator and […] of a solution containing 20 μM of N-(Ac-DEVD)-N′-ethoxycarbonyl-R110 fluorogenic substrate (SEQ ID NO:1) (Cytovia, Inc.; U.S. Pat. No. 6,335,429), 20% sucrose (Sigma), 20 mM DTT (Sigma), 200 mM NaCl (Sigma), 40 mM Na PIPES buffer pH 7.2 (Sigma), and 500 μg/mL lysolecithin (Calbiochem) was added. The samples were mixed by agitation and incubated at room temperature. Using a fluorescent plate reader (Model 1420 Wallac Instruments), an initial reading (T=0) was made approximately 1-2 min after addition of the substrate solution, employing excitation at 485 nm and emission at 530 nm, to determine the background fluorescence of the control sample. After approximately 3 h of incubation, the samples were read for fluorescence as above (T=3 h).
(§2) The relative Fluorescence Unit values (RFU) were used to calculate the sample readings as follows: RFU(T=3h)−Control RFU(T=0)=Net RFU(T=3h)
(§3) The activity of caspase cascade activation was determined by the ratio of the net RFU value for N,N′-bis-(3-trifluoromethyl-phenyl)-2-(4-isopropyl-benzylidene)-malonamide to that of control samples. The EC50 (nM) was determined by a sigmoidal dose-response calculation (Prism 2.0, GraphPad Software Inc.).

In a further experiment the test system is ZR-75-1. The experiment is described as follows: Caspase cascade activation (Ac-DEVD-R110 fluorogenic substrate) in ZR-75-1 cells. It counts as cell-based, Human. As to conditions: 24 h incubation; for Caspase Activity Ratio: ratio of net RFU to that of control samples; for EC50: 0.16 to 10 μM final, read-out: Caspase potency EC50. The method, then:
as §1, §2, §3

Experiment [2] has as its system T-47D. Description: Inhibition of cell proliferation (GI50, CellTiter 96 AQueous One) in T-47D cells. Type of experiment: cell-based. The following applies: Homo sapiens, T47D, 48 h incubation, read-out: GI50 (dose for 50% inhibition of cell proliferation). The method, then:
(§4) T-47D and DLD-1 cells were grown and harvested as in Example 105. An aliquot of 90 μL of cells (2.2×10^4 cells/mL) was added to a well of a 96-well microtiter plate containing 10 μl of a 10% DMSO in RPMI-1640 media solution containing 1 nM to 100 μM of N,N′-bis-(3-trifluoromethyl-phenyl)-2-(4-isopropyl-benzylidene)-malonamide (0.1 nM to 10 μM final). An aliquot of 90 μL of cells was added to a well of a 96-well microtiter plate containing 10 μL of a 10% DMSO in RPMI-1640 media solution without compound as the control sample for maximal cell proliferation (AMax). The samples were mixed by agitation and then incubated at 37° C. for 48 h in a 5% CO2-95% humidity incubator. After incubation, the samples were removed from the incubator and 20 μL of CellTiter 96 AQUEOUS One Solution Cell Proliferation™ reagent (Promega) was added. The samples were mixed by agitation and incubated at 37° C. for 2-4 h in a 5% CO2-95% humidity incubator. Using an absorbance plate reader (Model 1420 Wallac Instruments), an initial reading (T=0) was made approximately 1-2 min after addition of the solution, employing absorbance at 490 nm. This determines the possible background absorbance of the test compounds. No absorbance for N,N′-bis-(3-trifluoromethyl-phenyl)-2-(4-isopropyl-benzylidene)-malonamide was found at 490 nm. After the 2-4 h incubation, the samples were read for absorbance as above (ATest).
(§5) Baseline for GI50 (dose for 50% inhibition of cell proliferation) of initial cell numbers were determined by adding an aliquot of 90 μL of cells or 90 μL of media, respectively, to wells of a 96-well microtiter plate containing 10 μL of a 10% DMSO in RPMI-1640 media solution. The samples were mixed by agitation and then incubated at 37° C. for 0.5 h in a 5% CO2-95% humidity incubator. After incubation, the samples were removed from the incubator and 20 μL of CellTiter 96 AQUEOUS One Solution Cell Proliferation™ reagent (Promega) was added. The samples were mixed by agitation and incubated at 37° C. for 2-4 h in a 5% CO2-95% humidity incubator. Absorbance was read as above, (AStart) defining absorbance for initial cell number used as baseline in GI50 determinations.
(§6) GI50 (dose for 50% inhibition of cell proliferation) is the concentration where [(ATest−AStart)/(AMax−AStart)]=0.5.

The test system of the next experiment is DLD-1. The experiment is described as follows: Inhibition of cell proliferation (GI50, CellTiter 96 AQueous One) in DLD-1 cells. It counts as cell-based. As to conditions: Homo sapiens, 48 h incubation, read-out: GI50 (dose for 50% inhibition of cell proliferation). The protocol: as §4, §5, §6

One may read the EC50 as the concentration that produces a half-maximal response. Take `COc1cccc(NC(=O)C(=Cc2ccc(C(F)(F)F)cc2)C(=O)Nc2cccc(OC)c2)c1` [Example 1, N,N′-Bis-(3-methoxy-phenyl)-2-(4-trifluoromethyl-benzylidene)-malonamide]: the “Caspase Activity Ratio” value with T-47D [1] worked out at 28; in the experiment on ZR-75-1, 14. In addition, the EC50 was determined as 2850 nM in the experiment with T-47D [1] (Homo sapiens, T47D) and 5500 nM in the experiment with ZR-75-1 (Homo sapiens).
Turning to `O=C(Nc1cccc(C(F)(F)F)c1)C(=Cc1ccc(Cl)cc1Cl)C(=O)Nc1cccc(C(F)(F)F)c1` [Example 2, N,N′-Bis-(3-trifluoromethyl-phenyl)-2-(2,4-dichloro-benzylidene)-malonamide], the “Caspase Activity Ratio” value came out at 16 in the experiment on T-47D [1] and 18 in the experiment with ZR-75-1. The EC50 in the experiment on T-47D [1] (Homo sapiens, T47D) worked out at 647 nM; in the experiment with ZR-75-1 (Homo sapiens) it was 906 nM. Besides, the GI50 with T-47D [2] was determined as 150 nM; in the experiment on DLD-1 it was 200 nM.
Take `O=C(Nc1cccc(C(F)(F)F)c1)C(=Cc1ccco1)C(=O)Nc1cccc(C(F)(F)F)c1` [Example 4, N,N′-Bis-(3-trifluoromethyl-phenyl)-2-furan-2-yl-methylene-malonamide]: in the experiment on T-47D [1], the EC50 is 5750 nM and the “Caspase Activity Ratio” value is listed as 28. For the same molecule, in the experiment on ZR-75-1, the EC50 worked out at 5600 nM and the “Caspase Activity Ratio” value is recorded as 6.
Consider `Cc1ccc(C=C(C(=O)Nc2cccc(C(F)(F)F)c2)C(=O)Nc2cccc(C(F)(F)F)c2)c(C)c1` [Example 5, N,N′-Bis-(3-trifluoromethyl-phenyl)-2-(2,4-dimethyl-benzylidene)-malonamide], for which the “Caspase Activity Ratio” value is given as 30 in the experiment with T-47D [1] and 26 in the experiment on ZR-75-1. Also, the EC50 in the experiment on T-47D [1] (Homo sapiens, T47D) is 1900 nM; in the experiment with ZR-75-1 (Homo sapiens), 5400 nM.
`COc1ccc(C=C(C(=O)Nc2cccc(C(F)(F)F)c2)C(=O)Nc2cccc(C(F)(F)F)c2)c(OC)c1` [Example 6, N,N′-Bis-(3-trifluoromethyl-phenyl)-2-(2,4-dimethoxy-benzylidene)-malonamide]: the “Caspase Activity Ratio” value with T-47D [1] and in the experiment on ZR-75-1 was 1 throughout. Also, the EC50 is above 10000 nM in the experiment with T-47D [1] (Homo sapiens, T47D) and above 10000 nM in the experiment with ZR-75-1 (Homo sapiens).
On to `CC(C)c1ccc(CC(C(=O)Nc2cccc(C(F)(F)F)c2)C(=O)Nc2cccc(C(F)(F)F)c2)cc1` [Example 7, N,N′-Bis-(3-trifluoromethyl-phenyl)-2-(4-isopropyl-benzyl)-malonamide], for which the “Caspase Activity Ratio” value is reported as 1 with T-47D [1] and 2.2 in the experiment on ZR-75-1. Further, the EC50 in the experiment with T-47D [1] (Homo sapiens, T47D) is above 10000 nM; in the experiment with ZR-75-1 (Homo sapiens), 1700 nM.
As for `O=C(Nc1cccc(C(F)(F)F)c1)C(=Cc1ccncc1)C(=O)Nc1cccc(C(F)(F)F)c1` [Example 8, N,N′-Bis-(3-trifluoromethyl-phenyl)-2-(4-pyridyl-methylene)-malonamide], the “Caspase Activity Ratio” value in the experiment on T-47D [1] came to 17; in the experiment on ZR-75-1, 9.5. Moreover, the 50% effective concentration (EC50) amounted to 4050 nM with T-47D [1] (Homo sapiens, T47D) and 4600 nM in the experiment with ZR-75-1 (Homo sapiens). For the same molecule, the GI50 in the experiment on T-47D [2] stood at 1570 nM; in the experiment on DLD-1 it was 1530 nM.
Turning to `CC(C)c1ccc(C=C(C(=O)Nc2ccccc2)C(=O)Nc2ccccc2)cc1` [Example 10, N,N′-Diphenyl-2-(4-isopropyl-benzylidene)-malonamide], the “Caspase Activity Ratio” value turned out to be 16 in the experiment with T-47D [1] and 2.5 in the experiment on ZR-75-1. The EC50 was determined as 5790 nM in the experiment on T-47D [1] (Homo sapiens, T47D) and 4500 nM in the experiment with ZR-75-1 (Homo sapiens).
In the case of `CC(C)c1ccc(C=C(C(=O)Nc2ccccc2C(F)(F)F)C(=O)Nc2ccccc2C(F)(F)F)cc1` [Example 11, N,N′-Bis-(2-trifluoromethyl-phenyl)-2-(4-isopropyl-benzylidene)-malonamide], the “Caspase Activity Ratio” value in the experiment on T-47D [1] and in the experiment with ZR-75-1 was 1 each time. Besides, the EC50 was above 10000 nM in the experiment with T-47D [1] (Homo sapiens, T47D) and above 10000 nM in the experiment with ZR-75-1 (Homo sapiens).
`CC(C)c1ccc(C=C(C(=O)Nc2ccc(C(F)(F)F)cc2)C(=O)Nc2ccc(C(F)(F)F)cc2)cc1` [Example 12, N,N′-Bis-(4-trifluoromethyl-phenyl)-2-(4-isopropyl-benzylidene)-malonamide]: the “Caspase Activity Ratio” value in the experiment with T-47D [1] and with ZR-75-1 was 1 throughout. Also, the EC50 in the experiment on T-47D [1] (Homo sapiens, T47D) is above 10000 nM; in the experiment with ZR-75-1 (Homo sapiens), above 10000 nM.
Consider `COc1cccc(NC(=O)C(=Cc2ccc(C(C)C)cc2)C(=O)Nc2cccc(OC)c2)c1` [Example 13, N,N′-Bis-(3-methoxy-phenyl)-2-(4-isopropyl-benzylidene)-malonamide], for which the “Caspase Activity Ratio” value is listed as 21 with T-47D [1] and 4.5 in the experiment on ZR-75-1. Further, the concentration giving a half-maximal response (EC50) with T-47D [1] (Homo sapiens, T47D) came to 2890 nM; in the experiment on ZR-75-1 (Homo sapiens), 5500 nM.
Regarding `CC(C)c1ccc(C=C(C(=O)Nc2cccc(Cl)c2)C(=O)Nc2cccc(Cl)c2)cc1` [Example 14, N,N′-Bis-(3-chloro-phenyl)-2-(4-isopropyl-benzylidene)-malonamide], the entries for the “Caspase Activity Ratio” value in the experiment on T-47D [1] and in the experiment with ZR-75-1 were 21 and 7.2, respectively. Besides, the EC50 worked out at 738 nM in the experiment on T-47D [1] (Homo sapiens, T47D) and 1980 nM in the experiment on ZR-75-1 (Homo sapiens). In addition, the GI50 in the experiment with T-47D [2] was determined as 1190 nM; in the experiment with DLD-1, 1230 nM.
With `O=C(Nc1cccc(C(F)(F)F)c1)C(=Cc1cnc[nH]1)C(=O)Nc1cccc(C(F)(F)F)c1` [Example 16, N,N′-Bis-(3-trifluoromethyl-phenyl)-2-(3H-imidazol-4-yl-methylene)-malonamide], the values for the GI50 with T-47D [2] and in the experiment with DLD-1 were 1720 nM and 1680 nM, respectively.
As to `CC(C)c1ccc(C=C(C(=O)Nc2cccc(O)c2)C(=O)Nc2cccc(O)c2)cc1` [Example 18, N,N′-Bis-(3-hydroxy-phenyl)-2-(4-isopropyl-benzylidene)-malonamide], the GI50 with T-47D [2] was 467 nM; in the experiment with DLD-1 it was 1650 nM.
With `CC(C)c1ccc(C=C(C(=O)Nc2cccc(Br)c2)C(=O)Nc2cccc(Br)c2)cc1` [Example 20, N,N′-Bis-(3-bromo-phenyl)-2-(4-isopropyl-benzylidene)-malonamide], the results for the GI50 in the experiment on T-47D [2] and in the experiment with DLD-1 were 1520 nM and 1660 nM, respectively.
In the case of `CCc1ccc(C=C(C(=O)Nc2cccc(C(F)(F)F)c2)C(=O)Nc2cccc(C(F)(F)F)c2)cc1` [Example 26, N,N′-Bis-(3-trifluoromethyl-phenyl)-2-(4-ethyl-benzylidene)-malonamide], the GI50 with T-47D [2] amounted to 666 nM; in the experiment with DLD-1, 1650 nM.

Values taken from patent US20070043076A1, “Substituted 2-arylmethylene-n-aryl-n'aryl-malonamides and analogs as activators of caspases and inducers of apoptosis” (priority 2003, published 2007).
